This is an account of results in article PMC11275008, “Anti-Inflammatory and Cancer-Preventive Potential of Chamomile (Matricaria chamomilla L.): A Comprehensive In Silico and In Vitro Study” (Biomedicines, 2024).

In the experiment the target is T1, NF-κB (recombinant human NF-κB; docking used NF-κB p65-RelA) (Homo sapiens, UniProt Q04206).
T1 construct: commercial recombinant protein (Sino Biological); labelled with RED-NHS 2nd generation dye on lysines
Description: microscale thermophoresis. The format is binding. On the technique in general: Microscale thermophoresis detects binding through changes in fluorescence in a small temperature gradient.

T1 sequence (Q04206 whole entry): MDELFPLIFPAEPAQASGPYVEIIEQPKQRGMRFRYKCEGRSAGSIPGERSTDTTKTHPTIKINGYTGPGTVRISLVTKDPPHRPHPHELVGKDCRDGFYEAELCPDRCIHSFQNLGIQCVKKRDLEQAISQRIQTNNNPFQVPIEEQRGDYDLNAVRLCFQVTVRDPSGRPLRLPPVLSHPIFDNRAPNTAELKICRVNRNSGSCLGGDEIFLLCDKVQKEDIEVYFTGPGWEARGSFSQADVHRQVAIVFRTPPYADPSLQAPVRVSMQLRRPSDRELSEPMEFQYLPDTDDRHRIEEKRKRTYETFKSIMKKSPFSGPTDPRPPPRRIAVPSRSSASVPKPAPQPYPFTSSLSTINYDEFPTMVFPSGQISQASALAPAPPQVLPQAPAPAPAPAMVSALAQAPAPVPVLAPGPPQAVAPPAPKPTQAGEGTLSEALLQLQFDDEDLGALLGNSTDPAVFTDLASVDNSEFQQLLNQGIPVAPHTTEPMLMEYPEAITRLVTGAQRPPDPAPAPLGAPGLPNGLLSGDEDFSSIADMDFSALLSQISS

For `CC1(C)CC[C@]2(C)CC[C@]3(C)C(=CC[C@@H]4[C@@]5(C)CC[C@H](O)C(C)(C)[C@@H]5CC[C@]43C)[C@@H]2C1` [β-amyrin], the Kd (as a rule, the concentration at which binding is half-saturated) came to 943 ± 113 nM.
